Data published in patent US7408022B2, “Composition and method for increasing apoptosis in cancer cells” (Celtek Bioscience, LLC, priority 2004, dated 2008).
Peptide text beside a SMILES is read from it.

How the values were obtained:
[1] = Quantitative indirect immunofluorescence assay of peptide cellular import (96-well plates); format: cell-based; details: from time-dependent fluorescence accumulation, 1-20 h
Source text: This indirect immunofluoresence assay was also utilized to quantitate peptide cellular import. Briefly, cells grown in 96-well plates will be treated with peptides for different time periods, and then subjected to an indirect immunofluorescence assay using anti-peptide antibody and FITC-labeled anti-rabbit antibody as described above. Cells were then lysed with 10% SDS and the fluorescence in the soluble cell solutions was quantified by a Cytofluor™ 2300 reader (Millipore) at 485/560 nm. The fluorescence readings were calculated by subtracting […] of peptide-untreated sample. The data were expressed as mean ±SEM of three independent experiments performed in quintuplicate samples. The kinetics of imported CB5005 peptide (SEQ ID NO: 4) was studied by using this quantitative.

neuroblastoma N2a cells = assay: In vitro cytotoxicity assay (MTS); format: cell-based; details: 24 h at 37° C.
Protocol: (§1) LNCaP, DU145, PC3, or neuroblastoma N2a cells were grown in 96-well plates to a confluence of 60%. The treatments with different concentrations of peptide were performs in quadruplicates in a total volume of 100 μl in RPMI without serum for 24 h at 37° C. The cells were then washed and incubated at 37° C. with 100 μl phenol-red free RPMI containing 20 μl of the CellTiter 96 AQueous Solution reagent (Promega, Madison, Wis.) for 1 h. The absorbency in each well was recorded at 490 nm using a Microplate Autoreader EL 309 (Bio-Tek Instruments, Winooski, Vt.). The absorbency reflects directly the number of viable cells. Blanks were subtracted from all data. The data were then analyzed using Prism software (GraphPad Software Inc., San Diego, Calif.) and expressed as a mean ±SE of three independent experiments. Statistical significance was performed by one way ANOVA and consider significant if p<0.05.

DU145 cells [2] = assay: In vitro cytotoxicity assay (MTS); format: cell-based, Human; details: DU145, 30 μM, 24 h
Protocol: as §1

LNCaP cells = assay: In vitro cytotoxicity assay (MTS); format: cell-based, Human; details: 24 h at 37° C.
Protocol: as §1

PC3 cells = assay: In vitro cytotoxicity assay (MTS); format: cell-based, Human; details: PC3, 30 μM, 24 h
Protocol: as §1

DU145 cells [3] = assay: Annexin V/PI fluorescence microscopy apoptosis assay; format: cell-based, Human; details: cisplatin 5 μg/ml alone, 5 h
Protocol: DU145 cells were grown on 4-well chamber slides to a confluence of 70-80%. Cells were then treated with CB5005 peptide (SEQ ID NO: 4) (30 μM) or diluent for 30 min at 37° C. followed by cisplatin (5 μg/ml) for an additional 5 h. […] The chamber slides were mounted in Poly/mount (Polysciences, Warrington, Pa.) and analyzed with a fluorescence microscope (Microstar IV, Reichard, Buffalo, N.Y.) using ×100 oil immersion lens. The color images were analyzed by a Pixera digital camera and stored in JPG format.

DU145 cells [4] = assay: Flow cytometric analysis of annexin V/PI stained cells; format: cell-based, Human; details: for induction of apoptosis by co-treatment with cisplatin (flow cytometry): CB5005 30 μM, CB5003 72 μM, CB5002 72 μM, cisplatin 5 μg/ml
Protocol: PCA cells were grown on 60-mm dishes to a confluence of 50-60%. These cells were incubated with different concentrations of peptides for 30 min at 37° C. followed by the treatment with TNF-α (10 ng/ml), cisplatin (2-30 μg/ml), etoposide (2-20 μg/ml) or diluent for an additional 21 h at 37° C. Phosphatidylserine exposure on apoptotic cells was measured by their ability to bind Annexin V. Specifically, cells were harvested by trypsinization. The trypsinized cells, media and PBS washes were combined and cells collected by centrifugation. […] Stained cells were analyzed by flow cytometry. A minimum 20,000 events for each sample was measured.

DU145 cells [5] = assay: Indirect immunofluorescence assay for peptide cellular import; format: cell-based, Human; details: different concentrations of peptides, 1 h at 37° C.
Protocol: DU145 cells were grown on 8-well chamber slides (Nunc, Naperville, Ill.) to a confluence of 80%. These cells were then incubated with diluent or different concentrations of peptides in RPMI without serum for 1 h at 37° C. The cells were washed three times with cold PBS to remove the extracellular peptides and then fixed with 3.5% paraformaldehyde solution in PBS at 4° C. for 20 min. The fixed cells were washed three times with cold PBS and treated with 0.25% Triton X-100 for 10 min. The washed cells were then incubated with anti-peptide IgG in PBS for 1 h. After three 5 min washings with PBS, the intracellular peptides (via peptide-antibody complexes) were subsequently detected with FITC-labeled goat anti-rabbit IgG (Pierce, Rockford, Ill.) after 1 h incubation. Cover slips with stained cells were mounted in Poly/Mount (Polysciences, Warrington, Pa.) and analyzed with Microstar IV (Reichard, Buffalo, N.Y.) using a 100× oil immersion lens. The color images were analyzed using a Pixera digital camera and stored in JPG format. The same assay was also utilized for determining peptide cellular import in other cell lines, including PC3, LNCaP, and neuroblastoma N2a cells.

DU145 cells [6] = assay: TUNEL assay; format: cell-based, Human; details: peptide 30 min, then cisplatin 5 μg/ml 16 h; CB5003 40 μM, CB5002 72 μM, CB5007 30 μM
Protocol: DU145 cells were grown on 8-well chamber slides to a confluence of 70-80%. The cells were then incubated with different concentrations of peptides or diluent for 30 min at 37° C. followed by the treatment with cisplatin (5 μg/ml) or diluent for an additional 16 h. The cells were air-dried and fixed in 4% paraformaldehyde at room temperature for 1 h. The cells were then washed with PBS and permeabilized with permeabilization solution (0.1% Triton X-100 in 0.1% sodium citrate) for 2 min on ice. Apoptosis was detected using TUNEL method “in situ cell death detection POD” according to the manufacturer's instructions (Roche, Indianapolis, Ind.). The fluorescein-labeled DNA strand breaks due to apoptosis were visualized under light microscope (Microstar IV, Reichard, Buffalo, N.Y.) by using anti-fluorescein antibody conjugated POD (peroxidase) at ×40 magnification. The images were analyzed using a Pixera digital camera.

[7] = test system: NF-κB nuclear translocation in DU145 cells; assay: Western blot analysis of NF-κB p50 protein in nuclear extracts; format: cell-based, Human; details: CB5005 30 μM, CB5003 90 μM, CB5007 30 μM for 30 min, then TNF-α 10 ng/ml 1 h
Protocol: (§2) PCA cells were grown on 60-mm dishes to a confluence of 70-80%. The cells were incubated with different concentrations of peptides for 30 min at 37° C., followed by treatment with TNF-α (10 ng/ml) for an additional 1 h at 37° C., as indicated, or incubated with peptide alone for 16 hours. After the treatment, cells were washed with ice-cold PBS and lysed in 500 μl of buffer A (10 mM HEPES, pH 7.9, 10 mM KCl, 0.1 mM EDTA, 0.1 mM EGTA, 0.4% Nonidet P-40, 1 mM DTT, 0.5 mM PMSF and 1 μg/ml each of leupeptin, aprotinin, pepstatin, chymostatin and antipain) on ice for 10 min. Nuclei were pelleted by centrifugation at high speed and washed with 500 μl of buffer A. Nuclei were then resuspended in 40 μl of buffer B (20 mM HEPES, pH 7.9, 400 mM NaCl, 1 mM EDTA, 1 mM EGTA, 1 mM DTT, 1 mM PMSF and 1 μg/ml each of leupeptin, aprotinin, pepstatin, chymostatin and antipain). The protein concentration of nuclear extract was determined using Pierce BCA protein assay and equalized among samples using buffer B.
(§3) Equal amounts of proteins were heat-treated in 2×SDS sample loading buffer at 100° C. for 5 minutes and fractionated by 10% SDS polyacrylamide electrophoresis. The proteins were transferred to nitrocellulose paper. After blocking with 5% nonfat milk in TBS (10 mM Tris-HCl, pH 7.6, 70 mM NaCl and 0.05% Tween 20) for 30 minutes, nuclear NFκB p50 was detected by using an anti-p50 IgG antibody (1:5000), (Upstate, Lake Placid, N.Y.). The primary antibody was visualized with horseradish peroxidase-coupled secondary antibody by using ECL western blotting system as described in manufacturer's protocol (Pierce, Rockford, Ill.).

[8] = test system: NF-κB nuclear translocation in LNCaP cells; assay: as above; format: cell-based, Human; details: peptide 30 min, then TNF-α 10 ng/ml 1 h
Protocol: as §2, §3

| Compound | cellular import activity (DU145 cells [5]) | sensitizing activity to cisplatin-induced apoptosis (TUNEL) (DU145 cells [6]) | induction of apoptosis by co-treatment with cisplatin (flow cytometry) (DU145 cells [4]; 21 h) | TNF-α-induced NF-κB nuclear translocation [7] | TNF-α-induced NF-κB nuclear translocation [8] | further results |
| --- | --- | --- | --- | --- | --- | --- |
| CSCC[C@H](NC(=O)[C@H](CC(C)C)NC(=O)[C@H](CCCCN)NC(=O)[C@H](CCC(N)=O)NC(=O)[C@H](CCCNC(=N)N)NC(=O)[C@H](CCCCN)NC(=O)[C@H](CCCNC(=N)N)NC(=O)[C@H](CCC(N)=O)NC(=O)[C@@H](NC(=O)[C@H](C)NC(=O)[C@H](CC(C)C)NC(=O)[C@H](C)NC(=O)[C@H](CC(C)C)NC(=O)[C@H](C)NC(=O)[C@H](CC(C)C)NC(=O)[C@H](C)NC(=O)[C@H](CC(C)C)NC(=O)[C@H](CCCCN)NC(=O)[C@H](CC(C)C)NC(=O)[C@@H](N)CCCCN)C(C)C)C(=O)N1CCC[C@H]1C(=O)O [CB5005] (H-KLKLALALALAVQRKRQKLMP-OH; N-terminus and C-terminus assumed) |  |  |  |  |  | stability in intracellular compartments [1]: relatively stability; cytotoxicity (MTS) (neuroblastoma N2a cells): did not result in toxicity; cytotoxicity (MTS), peptide-untreated vs treated samples (DU145 cells [2]): Statistical significance (p<0.05); cytotoxicity (MTS) (LNCaP cells): not toxic; cytotoxicity (MTS), peptide-untreated vs treated samples (PC3 cells): Statistical significance (p<0.05) |
| N.N.[Cl][Pt][Cl] [cisplatin, reference compound] |  |  |  |  |  | induction of apoptosis (annexin V-FITC staining) (DU145 cells [3]): ineffective; induction of apoptosis (flow cytometry) (DU145 cells [4]; cisplatin 5 μg/ml alone, 21 h): ineffective |
| CB5002: control peptide with a mutant, non-functional CPS located N-terminal to the NLS (LALLAPVQRKRQKLMP) | not active | not | did not show significant effect |  |  |  |
| CB5003: analogous peptide possessing only a portion of the CPS (SEQ ID NO: 1) N-terminal to the NF-κB p50 NLS (LALALAVQRKRQKLMP) | much weaker import activity | active, although at a much lower level | active but to a much less extent | inhibited | inhibited | synergistic activity in enhancing the apoptosis induced by cisplatin (dependence on concentration) (DU145 cells [4]; DU145, flow cytometry): concentration-dependent |
| CB5007: control peptide corresponding to CB5005 except that two basic residues in the NF-kB p50 NLS are mutated (KR-NG) (KLKLALALALAVQRNGQKLMP) |  | not |  | did not have an inhibitory effect | did not have an inhibitory effect |  |
